Results from patent US12291494B2, “Methods of treating fibrosis” (Nogra Pharma Limited, priority 2012, dated 2025).
“Also recorded” adds a separate entry of the source.

What was measured:
[1] = tested on: liver biochemical parameters in the serum of mice (AST, ALT, Gamma GT, Alkaline phosphatase); assay: Liver blood enzyme analysis in serum; type: in vivo; settings: 4 days after the last administration of CCl4
Procedure: The effect of oral administration of compound 34 (GED) and the specific CB2 agonist (JWH-133) was evaluated on different liver biochemical parameters in the serum of mice: hepatic enzymes ([…]), Gamma GT and the Alkaline phosphatase.

[2] = tested on: IL-13; assay: DSS chronic colitis (Ex. 7): Western blot, IL-13; type: in vivo, mice; settings: percentage of optical density vs control group, normalized with GAPDH; DSS 189.5%±28.71%
Procedure: 0.5 cm of frozen colonic samples were cut and mechanically homogenized in RIPA Buffer containing 50 mMTrisHCl pH 7.6, 150 mMNaCl, 1.5 mM MgCl2, 5 mM EDTA, 1% Triton-X and 10% Glycerol, supplemented with 100 mM Sodium Fluoride (NaF), 2 mM Sodium Orthovanadate (Na3VO4), 10 mM Sodium Pyrophosphate (NaPPi), 1 mMphenylmethanesulphone (PMSF) and a classical protease-inhibitor cocktail containing 10 μg/mL Leupeptin and Aprotinin.
30 μg of protein for each sample were separated by PAGE and electroblotted. 100% pure Nitrocellulose membranes were incubated (according with a specific protocol for each antibody) with primary antibodies directed against TGF-β1, CTGF, α-SMA, Collagen-I and GAPDH (purchased from Abcam, Cambridge, UK; 1:1000 for 2 h at RT), and IL-13 (purchased from Antibodies online; 1:1000 for 2 h at RT) diluted in 5% non fat-milk in 0.1% TBS-t. […] Optical density of target bands was determined using a computer-assisted densitometer and the ImageJ public domain software (W. S., Rasband, ImageJ, U. S. National Institutes of Health, Bethesda, MD; http://rsb.info.nih.gov/ij/, 1997-2011). Tissue levels were expressed as units of Optical Density (OD) per quantity of total proteins, normalizing with internal control GAPDH and the results were expressed as percentage of control groups.

## COC(Cc1ccc(N)cc1)C(=O)O (racemic) [Compound 34, (±)-2-methoxy-3-(4′-aminophenyl) propionic acid]
[1]
  enhancement of blood liver enzymes (AST, ALT, Alk P) / liver toxicity: not associated with any enhancement of blood liver enzymes; also recorded: without liver toxicity
[2]
  IL-13 expression level (Western blot): 88.88%±14.01%
